This experiment concerns MCH receptors. The experiment can be described thus: MCH receptor activity class (method not given).
Setting [1] is: MCH receptor, class by percent of control at 10^-7 M or IC50.
[2] abbreviates: class by percent of control at 10^-7 M or IC50.
Where [3] appears, read: activity class 1-3: percent of control at 10^-7 M or IC50.
The mark [4] stands for this setting: MCH receptor activity class 1-3 (percent of control at 10^-7 M or IC50).

Regarding `CCCCCCCCCCc1ccc(NC(=S)N[C@H]2CC[C@@H](Nc3nc4c(c(N(C)C)n3)CCCC4)CC2)cc1` [compound 2048], under setting [1], the class is 3 (Class 3 The value of percent of control at 10^−7 M was more than 60% or the value of IC50 was more than 200 nM.). For the compound `CN(C)c1ccnc(N[C@H]2CC[C@@H](CNCc3cc(C(F)(F)F)cc(Cl)c3F)CC2)n1` [compound 1318], the class under setting [2] was 3 (Class 3 The value of percent of control at 10^−7 M was more than 60% or the value of IC50 was more than 200 nM.). Turning to `CCCSc1ncccc1C(=O)NC[C@H]1CC[C@@H](Nc2cc(N(C)C)c3ccccc3n2)CC1` [compound 211], the class under setting [1] is on record as 3 (Class 3 The value of percent of control at 10^−7 M was more than 60% or the value of IC50 was more than 200 nM.). Turning to `CN(C)c1ccnc(N[C@H]2CC[C@@H](NC(=O)c3ccc(Br)cc3)CC2)n1` [compound 240], the class under setting [2] is recorded as 3 (Class 3 The value of percent of control at 10^−7 M was more than 60% or the value of IC50 was more than 200 nM.). On the same count and under the same terms, then `CN(C)c1ccnc(N[C@H]2CC[C@@H](NC(=O)Nc3cccc4ccccc34)CC2)n1` [compound 2220], with 3 (Class 3 The value of percent of control at 10^−7 M was more than 60% or the value of IC50 was more than 200 nM.); and `CN(C)c1nc(N[C@H]2CC[C@@H](NC(=O)Nc3ccc4c(c3)OCCCO4)CC2)nc2c1CCCC2` [compound 1734], with 3 (Class 3 The value of percent of control at 10^−7 M was more than 60% or the value of IC50 was more than 200 nM.). Consider `CN(C)c1cc(N[C@H]2CC[C@@H](CNC(=O)OCC3c4ccccc4-c4ccccc43)CC2)nc2ccccc12` [compound 1577], for which, under setting [3], the class is reported as 3 (Class 3 The value of percent of control at 10^−7 M was more than 60% or the value of IC50 was more than 200 nM.). In the case of `CN(C)c1cc(N[C@H]2CC[C@@H](NC(=O)c3sc(Cl)c(Cl)c3Cl)CC2)nc2ccccc12` [compound 132], the class under setting [1] is given as 3 (Class 3 The value of percent of control at 10^−7 M was more than 60% or the value of IC50 was more than 200 nM.). With `Cc1cnc(N[C@H]2CC[C@@H](NCc3cccc(Cl)c3)CC2)nc1N(C)C` [compound 2998], the class (class by percent of control at 10^−7 M or IC50) is 3 (Class 3 The value of percent of control at 10^−7 M was more than 60% or the value of IC50 was more than 200 nM.).

With `CN(C)c1ccnc(N[C@H]2CC[C@@H](NC(=O)/C=C/c3ccccc3[N+](=O)[O-])CC2)n1` [compound 866], the class under setting [2] was 3 (Class 3 The value of percent of control at 10^−7 M was more than 60% or the value of IC50 was more than 200 nM.).

For the compound `Cc1c(Cl)cccc1NC(=O)N[C@H]1CC[C@@H](Nc2nccc(N(C)C)n2)CC1` [compound 2205], the class under setting [2] is 3 (Class 3 The value of percent of control at 10^−7 M was more than 60% or the value of IC50 was more than 200 nM.). With `CN(C)c1nc(N[C@H]2CC[C@@H](NC(=O)c3ccc(Cl)s3)CC2)nc2c1CCCC2` [compound 953], under setting [2], the class is listed as 1 (Class 1: The value of percent of control at 10^−7 M was less than 40% or the value of IC50 was less than 50 nM.). For the compound `CN(C)c1ccnc(N[C@H]2CC[C@@H](NC(=O)OCC3c4ccccc4-c4ccccc43)CC2)n1` [compound 1637], the class under setting [3] is 3 (Class 3 The value of percent of control at 10^−7 M was more than 60% or the value of IC50 was more than 200 nM.).

In the case of `CN(C)c1ccnc(N[C@H]2CC[C@@H](NC(=S)Nc3ccc(Br)cc3Cl)CC2)n1` [compound 2316], the class under setting [4] is listed as 3 (Class 3 The value of percent of control at 10^−7 M was more than 60% or the value of IC50 was more than 200 nM.). For `COc1ccc(C)cc1NC(=O)NC[C@H]1CC[C@@H](Nc2cc(N(C)C)c3ccccc3n2)CC1` [compound 2400], the class under setting [4] is recorded as 3 (Class 3 The value of percent of control at 10^−7 M was more than 60% or the value of IC50 was more than 200 nM.). As for `Cc1ccc(C(=O)NC[C@H]2CC[C@@H](Nc3nccc(N(C)C)n3)CC2)cc1[N+](=O)[O-]` [compound 388], under setting [2], the class is 3 (Class 3 The value of percent of control at 10^−7 M was more than 60% or the value of IC50 was more than 200 nM.).

Consider `CN(C)c1ccnc(N[C@H]2CC[C@@H](CNC(=O)c3ccc4c(c3)OCO4)CC2)n1` [compound 392], for which the class under setting [2] is 3 (Class 3 The value of percent of control at 10^−7 M was more than 60% or the value of IC50 was more than 200 nM.).

Consider `CN(C)c1ccnc(N[C@H]2CC[C@@H](CNCc3ccc(N(C)CCC#N)cc3)CC2)n1` [compound 1323], for which, under setting [2], the class is 2 (Class 2: The value of percent of control at 10^−7 M was from 40% to 60% or the value of IC′50 was from 50 nM to 200 nM.). Regarding `COc1cc(NC(=S)N[C@H]2CC[C@@H](Nc3nc4c(c(N(C)C)n3)CCCC4)CC2)c(OC)cc1Cl` [compound 1788], the class under setting [2] is given as 2 (Class 2: The value of percent of control at 10^−7 M was from 40% to 60% or the value of IC′50 was from 50 nM to 200 nM.).

`C=CCSc1ncccc1C(=O)N[C@H]1CC[C@@H](Nc2nccc(N(C)C)n2)CC1` [compound 923]: the class under setting [2] is given as 3 (Class 3 The value of percent of control at 10^−7 M was more than 60% or the value of IC50 was more than 200 nM.). Turning to `CN(C)c1ccnc(N[C@H]2CC[C@@H](NC(=O)c3cc(C(C)(C)C)nn3C)CC2)n1` [compound 304], the class under setting [2] was 3 (Class 3 The value of percent of control at 10^−7 M was more than 60% or the value of IC50 was more than 200 nM.). On the same count and under the same terms, under `CN(C)c1nc(N[C@H]2CC[C@@H](NC(=O)Nc3ccc(Br)cc3C(F)(F)F)CC2)nc2c1CCCC2` [compound 1722] stands 3 (Class 3 The value of percent of control at 10^−7 M was more than 60% or the value of IC50 was more than 200 nM.); under `CN(C)c1nc(N[C@H]2CC[C@@H](CNCc3cc(Cl)cc(Br)c3O)CC2)nc2c1CCCC2` [compound 1404], 2 (Class 2: The value of percent of control at 10^−7 M was from 40% to 60% or the value of IC′50 was from 50 nM to 200 nM.). Take `CN(C)c1cc(N[C@H]2CC[C@@H](CNCc3cccc(C#N)c3)CC2)nc2ccccc12` [compound 1163]: the class under setting [2] is reported as 3 (Class 3 The value of percent of control at 10^−7 M was more than 60% or the value of IC50 was more than 200 nM.).

Turning to `CN(C)c1nc(N[C@H]2CC[C@@H](NC(=O)NC3CCCCC3)CC2)nc2c1CCCC2` [compound 1816], the class under setting [2] was 3 (Class 3 The value of percent of control at 10^−7 M was more than 60% or the value of IC50 was more than 200 nM.). On to `Cc1cc(C)c(NC(=S)N[C@H]2CC[C@@H](Nc3nccc(N(C)C)n3)CC2)c(C)c1` [compound 2320, N-(cis-4-{[4-(dimethylamino)pyrimidin-2-yl]amino}cyclohexyl)-N′-mesitylthiourea], for which the class under setting [4] is 1 (Class 1: The value of percent of control at 10^−7 M was less than 40% or the value of IC50 was less than 50 nM.). On to `CN(C)c1ccnc(N[C@H]2CC[C@@H](CNC(=O)c3ccc(Cl)cc3)CC2)n1` [compound 370], for which, under setting [2], the class is 2 (Class 2: The value of percent of control at 10^−7 M was from 40% to 60% or the value of IC′50 was from 50 nM to 200 nM.). With `CN(C)c1nc(N[C@H]2CC[C@@H](NC(=S)Nc3ccccc3Br)CC2)nc2c1CCCC2` [compound 1963], the class under setting [1] was 3 (Class 3 The value of percent of control at 10^−7 M was more than 60% or the value of IC50 was more than 200 nM.). Regarding `Cc1cc(=O)oc2c(OCC(=O)N[C@H]3CC[C@@H](Nc4nccc(N(C)C)n4)CC3)cccc12` [compound 363], the class under setting [2] is given as 3 (Class 3 The value of percent of control at 10^−7 M was more than 60% or the value of IC50 was more than 200 nM.). As to `Cc1ccc(C(=O)N[C@H]2CC[C@@H](Nc3nc4c(c(N(C)C)n3)CCCC4)CC2)cc1F` [compound 510], where the note is “class 1-3 by percent of control at 10^-7 M or IC50”, the class is 2 (Class 2: The value of percent of control at 10^−7 M was from 40% to 60% or the value of IC′50 was from 50 nM to 200 nM.). On to `CN(C)c1cc(N[C@H]2CC[C@@H](NC(=S)Nc3c(Cl)cc(Cl)cc3Cl)CC2)nc2ccccc12` [compound 2274, N-(cis-4-{[4-(dimethylamino)quinolin-2-yl]amino}cyclohexyl)-N′-(2,4,6-trichlorophenyl)thiourea], for which the class under setting [2] is listed as 2 (Class 2: The value of percent of control at 10^−7 M was from 40% to 60% or the value of IC′50 was from 50 nM to 200 nM.). With `CCCc1ccccc1NC(=O)N[C@H]1CC[C@@H](Nc2nccc(N(C)C)n2)CC1` [compound 2202], under setting [2], the class is 3 (Class 3 The value of percent of control at 10^−7 M was more than 60% or the value of IC50 was more than 200 nM.). Still for that read-out and setting: then `CN(C)c1nc(N[C@H]2CC[C@@H](NC(=O)Cc3ccc(F)cc3Cl)CC2)nc2c1CCCC2` [compound 951, 2-(2-chloro-4-fluorophenyl)-N-(cis-4-{[4-(dimethylamino)-5,6,7,8-tetrahydroquinazolin-2-yl]amino}cyclohexyl)acetamide], with 1 (Class 1: The value of percent of control at 10^−7 M was less than 40% or the value of IC50 was less than 50 nM.).

As to `CN(C)c1nc(N[C@H]2CC[C@@H](CNC(=O)Cc3ccc(F)cc3Cl)CC2)nc2c1CCCC2` [compound 1063], for the setting “activity class per percent of control at 10^-7 M or IC50”, the class is on record as 3 (Class 3 The value of percent of control at 10^−7 M was more than 60% or the value of IC50 was more than 200 nM.). For the compound `CN(C)c1cc(N[C@H]2CC[C@@H](NC(=O)c3ccc(SC(F)(F)F)cc3)CC2)nc2ccccc12` [compound 131], the class under setting [1] is listed as 3 (Class 3 The value of percent of control at 10^−7 M was more than 60% or the value of IC50 was more than 200 nM.). Take `CN(C)c1ccnc(N[C@H]2CC[C@@H](NCCc3ccc(Br)cc3)CC2)n1` [compound 1513]: the class under setting [2] is listed as 3 (Class 3 The value of percent of control at 10^−7 M was more than 60% or the value of IC50 was more than 200 nM.). On the same count and under the same terms, under `COc1cc([N+](=O)[O-])ccc1C(=O)N[C@H]1CC[C@@H](Nc2cc(N(C)C)c3ccccc3n2)CC1` [compound 771, N-(cis-4-{[4-(dimethylamino)quinolin-2-yl]amino}cyclohexyl)-2-methoxy-4-nitrobenzamide] stands 2 (Class 2: The value of percent of control at 10^−7 M was from 40% to 60% or the value of IC′50 was from 50 nM to 200 nM.).

The record behind these values is patent publication US20050197350A1, “Novel quinoline, tetrahydroquinazoline, and pyrimidine derivatives and methods of treatment related to the use thereof” (TAISHO PHARMACEUTICAL CO., LTD., priority 2003, published 2005).
